Assay results from US20130288989A1, “NEW USE OF CHEMICAL INGREDIENTS IN CYNOMORIUM AS PHYTOESTROGEN” (TIANJIN UNIVERSITY OF TRADITIONAL CHINESE MEDICINE, priority 2010, published 2013).

Tests used:
Type in all cases: cell-based
[1] = biological target: T1, ERα (Homo sapiens, UniProt P03372); assay: ERα luciferase reporter gene transcription activation in transfected Hela cells; conditions: for ERα (% of the control) mean ± S.D. / ERα (% of estradiol): Hela cells; for ERα (% of the control) mean ± S.D.: 24 h; for ERα (% of estradiol): estradiol at 10^−8M
T1 construct: expressed in transfected cells; host or cells: Hela cells (ER expression free)
T1 sequence (P03372 1-595): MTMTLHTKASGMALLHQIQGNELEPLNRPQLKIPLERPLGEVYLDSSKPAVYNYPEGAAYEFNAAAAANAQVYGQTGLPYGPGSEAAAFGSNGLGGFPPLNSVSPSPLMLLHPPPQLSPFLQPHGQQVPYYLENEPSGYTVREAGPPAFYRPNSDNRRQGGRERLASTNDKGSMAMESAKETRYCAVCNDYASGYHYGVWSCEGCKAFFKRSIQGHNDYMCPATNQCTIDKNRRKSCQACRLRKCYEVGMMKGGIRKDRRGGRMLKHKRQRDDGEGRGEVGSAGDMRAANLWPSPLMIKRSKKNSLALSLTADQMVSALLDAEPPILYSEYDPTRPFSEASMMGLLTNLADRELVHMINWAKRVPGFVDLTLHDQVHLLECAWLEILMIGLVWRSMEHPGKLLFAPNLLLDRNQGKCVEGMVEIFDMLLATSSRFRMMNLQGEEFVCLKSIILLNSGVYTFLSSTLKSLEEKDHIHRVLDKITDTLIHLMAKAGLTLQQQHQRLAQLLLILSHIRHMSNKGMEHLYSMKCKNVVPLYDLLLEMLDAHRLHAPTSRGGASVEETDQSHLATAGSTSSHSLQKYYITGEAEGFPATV
Description: (§1) Actually, estrogens show their biological activity by regulating estrogen responding genetic transcription.
(§2) Formulation of sample solutions of catechin, (−)epicatechin-3-O-gallate, naringenin-4′-O-glucoside, phlorizin, emodin, chrysophanol (separately obtained from Example 1):
(§3) Catechin, (−)epicatechin-3-O-gallate, naringenin-4′-O-glucoside, phlorizin, emodin, chrysophanol in corresponding weights were separately weighed precisely, than added with DMSO for dissolution, the corresponding sample solution high dose groups (10 μM or 1 μM), were diluted in certain times to separately obtain low dose groups (1 μM to 0.001 μM).
(§4) Under condition of 37° C. and 5% CO2, Hela cells were cultured in phenol red-free high sugar DMEM culture medium containing 10% calf serum in incubator, the cells were spread in 60% density on 96-well plate when cell density was about 90%, each well was added with 150 ul of phenol red-free DMEM culture medium containing 10% serum, cultivation was performed overnight. To each well of the 96-well plate, 100 ul of serum-free DMEM culture medium and 0.4 μg plasmid (ptk-ERE-luc 2 μg, tk-Renila 1 μg, ERα or ERβ 1 μg) were used for transfection. After 6 h of transfection, each well was added with 150 ul of serum-free phenol red-free DMEM culture medium. Three wells were selected form each group, added with 10^−8M estradiol E2, and substance to be tested in different concentrations, 15 ul/well (sample 4-5 concentration gradient groups), continuously cultured under condition of 37° C., 5% CO2 for 24 h. After 24 h, each well was added with 80 μl of cell disruption solution, and the cells were subjected to freeze thawing once to be sufficiently disrupted. As for the cell lysis solution of each well, its activities to firefly luciferase and Renila luciferase were separately measured.

[2] = biological target: T2, ERβ (Homo sapiens, UniProt Q92731); assay: ERβ luciferase reporter gene transcription activation in transfected Hela cells; conditions: for ERβ (% of the control) mean ± S.D. / ERβ (% of estradiol): Hela cells; for ERβ (% of the control) mean ± S.D.: 24 h; for ERβ (% of estradiol): estradiol at 10^−8M
T2 construct: expressed in transfected cells; host or cells: Hela cells (ER expression free)
T2 sequence (Q92731 whole entry): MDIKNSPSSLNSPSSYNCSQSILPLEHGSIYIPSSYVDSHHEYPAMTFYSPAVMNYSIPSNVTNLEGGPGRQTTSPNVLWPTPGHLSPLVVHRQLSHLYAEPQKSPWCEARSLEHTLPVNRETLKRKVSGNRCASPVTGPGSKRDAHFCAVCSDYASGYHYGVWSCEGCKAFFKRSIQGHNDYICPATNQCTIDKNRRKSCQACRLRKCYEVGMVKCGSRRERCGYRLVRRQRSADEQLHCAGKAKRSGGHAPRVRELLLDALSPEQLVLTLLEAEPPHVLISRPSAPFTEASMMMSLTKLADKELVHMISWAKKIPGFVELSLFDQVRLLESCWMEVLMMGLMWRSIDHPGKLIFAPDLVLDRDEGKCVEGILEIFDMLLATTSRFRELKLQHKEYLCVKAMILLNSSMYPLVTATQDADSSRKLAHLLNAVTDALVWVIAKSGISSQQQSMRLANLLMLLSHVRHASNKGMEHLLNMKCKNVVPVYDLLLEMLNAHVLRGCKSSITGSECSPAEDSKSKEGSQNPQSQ
Description: as §1, §2, §3, §4

[3] = tested on: estrogen receptor; assay: Estrogen receptor activation test: overall estrogen activity and ERβ versus ERα comparison; conditions: for ERβ/ERα (both % of estradiol at 10^−8M): Hela cells; for estrogen activity / estrogen receptor activation (in words): estradiol as positive control
Experimental: as §1, §4

Structure (SMILES): O=C1C[C@@H](c2ccc(O[C@@H]3O[C@H](CO)[C@@H](O)[C@H](O)[C@H]3O)cc2)Oc2cc(O)cc(O)c21 [Naringenin-4′-O-glucoside, naringenin-4′-O-glucoside]
- ERα (% of the control) mean ± S.D. ([1]; 10^−5 M): 188.07 ± 18.61 % of the control
- ERα (% of estradiol) ([1]; 10^−5 M): (91.88) % of estradiol
- ERα (% of the control) mean ± S.D. ([1]; 10^−6 M): 198.72 ± 3.99 % of the control
- ERα (% of estradiol) ([1]; 10^−6 M): (97.08) % of estradiol
- ERα (% of the control) mean ± S.D. ([1]; 10^−7 M): 182.34 ± 5.97 % of the control
- ERα (% of estradiol) ([1]; 10^−7 M): (89.08) % of estradiol
- ERα (% of the control) mean ± S.D. ([1]; 10^−8 M): 157.62 ± 14.54 % of the control
- ERα (% of estradiol) ([1]; 10^−8 M): (77.00) % of estradiol
- ERα (% of the control) mean ± S.D. ([1]; 10^−9 M): 110.04 ± 5.59 % of the control
- ERα (% of estradiol) ([1]; 10^−9 M): (53.76) % of estradiol
- concentration at which the transcriptional activity of ERα is agonized ([1]; luciferase reporter gene): 10^−9-10^−5 M
- ERβ (% of the control) mean ± S.D. ([2]; 10^−5 M): 215.85 ± 22.32 % of the control
- ERβ (% of estradiol) ([2]; 10^−5 M): (108.71) % of estradiol
- ERβ (% of the control) mean ± S.D. ([2]; 10^−6 M): 207.11 ± 15.76 % of the control
- ERβ (% of estradiol) ([2]; 10^−6 M): (104.30) % of estradiol
- ERβ (% of the control) mean ± S.D. ([2]; 10^−7 M): 200.66 ± 5.22 % of the control
- ERβ (% of estradiol) ([2]; 10^−7 M): (101.06) % of estradiol
- ERβ (% of the control) mean ± S.D. ([2]; 10^−8 M): 180.98 ± 10.46 % of the control
- ERβ (% of estradiol) ([2]; 10^−8 M): (91.14) % of estradiol
- ERβ (% of the control) mean ± S.D. ([2]; 10^−9 M): 137.90 ± 9.40 % of the control
- ERβ (% of estradiol) ([2]; 10^−9 M): (69.45) % of estradiol
- concentration at which the transcriptional activity of ERβ is agonized ([2]; luciferase reporter gene): 10^−9-10^−5 M
- ERβ/ERα (both % of estradiol at 10^−8M) ([3]; sample 10^−5 M): 1.18
- ERβ/ERα (both % of estradiol at 10^−8M) ([3]; sample 10^−6 M): 1.07
- ERβ/ERα (both % of estradiol at 10^−8M) ([3]; sample 10^−7 M): 1.13
- ERβ/ERα (both % of estradiol at 10^−8M) ([3]; sample 10^−8 M): 1.18
- ERβ/ERα (both % of estradiol at 10^−8M) ([3]; sample 10^−9 M): 1.29
- estrogen activity / estrogen receptor activation (in words) [3]: show relevance to estrogen receptor activation
- estrogen activity / estrogen receptor activation (in words) ([3]; listed as naringenin-4′-β-glucoside): potent activity of estrogen
- dose dependence of agonism of ERα and ERβ transcriptional activity ([3]; result in words): in a dose dependent manner
- selectivity to receptor subtypes (ERα vs ERβ) ([3]; result in words): a higher selectivity to ERβ than ERα
